Measurements: article PMC11844072, “Novel 5,6-dichlorobenzimidazole derivatives as dual BRAFWT and BRAFV600E inhibitors: design, synthesis, anti-cancer activity and molecular dynamics simulations” (BMC Chemistry, 2025)

Columns and labels:
Experiment in all cases: NCI 60 single concentration growth inhibition
Type in all cases: cell-based, human
ACHN = conditions: Homo sapiens, Renal cancer, read-out: GI%
Procedure, shortened: (§1)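 Cells are plated and left 24 h, and a time-zero plate is fixed at drug addition. Compound is then added for 48 h, the cells are fixed in cold TCA and stained with 0.4% SRB, and bound dye is solubilised in 10 mM Tris for reading at 515 nm.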

BT-549 = conditions: Homo sapiens, BT-549, Breast cancer, read-out: GI%
Procedure, shortened: as §1

KM12 = conditions: Homo sapiens, KM12, Colon cancer, read-out: GI%
Procedure, shortened: as §1

MCF7 = conditions: Homo sapiens, MCF7, Breast cancer, read-out: GI%
Procedure, shortened: as §1

MDA-MB-231/ATCC = conditions: Homo sapiens, Breast cancer, read-out: GI%
Procedure, shortened: as §1

MDA-MB-468 = conditions: Homo sapiens, MDA-MB-468, Breast cancer, read-out: GI%
Procedure, shortened: as §1

OVCAR-8 = conditions: Homo sapiens, OVCAR-8, Ovarian cancer, read-out: GI%
Procedure, shortened: as §1

PC-3 = conditions: Homo sapiens, PC-3, Prostate cancer, read-out: GI%
Procedure, shortened: as §1

RXF 393 = conditions: Homo sapiens, RXF 393, Renal cancer, read-out: GI%
Procedure, shortened: as §1

SF-539 = conditions: Homo sapiens, SF-539, CNS cancer, read-out: GI%
Procedure, shortened: as §1

SK-MEL-28 = conditions: Homo sapiens, SK-MEL-28, Melanoma, read-out: GI%
Procedure, shortened: as §1

SK-MEL-5 = conditions: Homo sapiens, SK-MEL-5, Melanoma, read-out: GI%
Procedure, shortened: as §1

SK-OV-3 = conditions: Homo sapiens, SK-OV-3, Ovarian cancer, read-out: GI%
Procedure, shortened: as §1

SN12C = conditions: Homo sapiens, Renal cancer, read-out: GI%
Procedure, shortened: as §1

T-47D = conditions: Homo sapiens, T47D, Breast cancer, read-out: GI%
Procedure, shortened: as §1

UACC-62 = conditions: Homo sapiens, UACC-62, Melanoma, read-out: GI%
Procedure, shortened: as §1

HT29 = conditions: Homo sapiens, HT-29, HT29, Colon cancer, read-out: GI%
Protocol: (§2) The synthesized dichlorobenzimidazoles 10a–p were assayed for their influence on divers cancer cell lines according to the method presented in the Additional file A.
(§3) 5. Screening of cytotoxic activity against a panel of sixty human tumor cell lines
(§4) The selected compounds by NCI were evaluated for their anticancer activity in a two-stage process. First, these compounds were screened against the full NCI 60 cell lines panel at a single high dose of 10 µM. Then, the output from the single dose screen is reported as a mean graph. […]
(§5) Assay protocol. The human tumor cell lines of the cancer screening panel are grown in RPMI 1640 medium containing 5% fetal bovine serum and 2 mM L-glutamine. For a typical screening experiment, cells are inoculated into 96 well microtiter plates in 100 µL at plating densities ranging from 5000 to 40,000 cells/well depending on the doubling time of individual cell lines. After cell inoculation, the microtiter plates are incubated at 37 °C, 5% CO 2, 95% air and 100% relative humidity for 24 h prior to addition of the experimental drugs.
(§6) After 24 h, two plates of each cell line are fixed in situ with TCA, to represent a measurement of the cell population for each cell line at the time of drug addition (Tz). The experimental drugs are solubilized in dimethyl sulfoxide at 400-fold the desired final maximum test concentration and stored frozen prior to use. At the time of drug addition, an aliquot of frozen concentrate is thawed and diluted to twice the desired final maximum test concentration with complete medium containing 50 µg/mL gentamicin. Additional four, 10-fold or ½ log serial dilutions are made to provide a total of five drug concentrations plus control.
(§7) Aliquots of […] of these different drug dilutions are added to the appropriate microtiter wells already containing […] of medium, resulting in the required final drug concentrations.
(§8) Following drug addition, the plates are incubated for an additional 48 h at 37 °C, 5% CO 2, 95% air, and 100% relative humidity. For adherent cells, the assay is terminated by the addition of cold TCA.
(§9) Cells are fixed in situ by the gentle addition of 50 µL of cold 50% (w/v) TCA (final concentration, 10% TCA) and incubated for 60 min at 4 °C. The supernatant is discarded, and the plates are washed five times with tap water and air dried. Sulforhodamine B (SRB) solution ([…]) at 0.4% (w/v) in 1% acetic acid is added to each well, and plates are incubated for 10 min at room temperature. After staining, unbound dye is removed by washing five times with 1% acetic acid and the plates are air dried. Bound stain is subsequently solubilized with 10 mM trizma base, and the absorbance is read on an automated plate reader at a wavelength of 515 nm. For suspension cells, the methodology is […]
(§10) the same except that the assay is terminated by fixing settled cells at the bottom of the wells by gently adding 50 µl of 80% TCA (final concentration, 16% TCA). Using the seven absorbance measurements [time zero, (Tz), control growth, (C), and test growth in the presence of drug at the five concentration levels (Ti)], the percentage growth is calculated at each of the drug concentrations […]
(§11) Percentage growth inhibition is calculated as: [(Ti Tz)/(C–Tz)] x 100 for concentrations for which Ti>/=Tz and [(Ti-Tz)/Tz] x 100 for concentrations for which Ti < Tz. […]
(§12) Results for each compound were reported as a mean graph of the percent growth of the treated cells when compared to the untreated control cells. There after obtaining the results for one dose assay, analysis of historical Development Therapeutics Programme (DTP) was performed and compounds which satisfies predetermined threshold inhibition criteria is selected for NCI full panel 5 dose assay.

NCI/ADR-RES = conditions: Homo sapiens, Ovarian cancer, read-out: GI%
Protocol: as §2, §3, §4, §5, §6, §7, §8, §9, §10, §11, §12

OVCAR-3 = conditions: Homo sapiens, OVCAR-3, Ovarian cancer, read-out: GI%
Protocol: as §2, §3, §4, §5, §6, §7, §8, §9, §10, §11, §12

Compound	inhibition at 10 µM (ACHN)	inhibition at 10 µM (BT-549)	inhibition at 10 µM (KM12)	inhibition at 10 µM (MCF7)	inhibition at 10 µM (MDA-MB-231/ATCC)	inhibition at 10 µM (MDA-MB-468)	inhibition at 10 µM (OVCAR-8)	inhibition at 10 µM (PC-3)	inhibition at 10 µM (RXF 393)	inhibition at 10 µM (SF-539)	inhibition at 10 µM (SK-MEL-28)	inhibition at 10 µM (SK-MEL-5)	inhibition at 10 µM (SK-OV-3)	inhibition at 10 µM (SN12C)	inhibition at 10 µM (T-47D)	inhibition at 10 µM (UACC-62)	inhibition at 10 µM (HT29)	inhibition at 10 µM (NCI/ADR-RES)	inhibition at 10 µM (OVCAR-3)
COc1ccc(-c2nc3cc(Cl)c(Cl)cc3n2CC(=O)NN=Cc2ccc(OC)c(O)c2)cc1 [Compound 10k, 2-(5,6-Dichloro-2-(4-methoxyphenyl)-1H-benzo[d]imidazol-1-yl)-N'-(3-hydroxy-4-methoxybenzylidene)acetohydrazide]	36.6%	31.7%	20.1%	68%	33.9%	71.2%	29.3%	56.6%	42.2%	29.1%	17.3%	62.2%	< 5%	16.3%	43.4%	35.4%	30.2%	40.1%	23.3%
COc1ccc(-c2nc3cc(Cl)c(Cl)cc3n2CC(=O)NN=Cc2ccc(O)c(OC)c2)cc1 [Compound 10l, 2-(5,6-Dichloro-2-(4-methoxyphenyl)-1H-benzo[d]imidazol-1-yl)-N'-(4-hydroxy-3-methoxybenzylidene)acetohydrazide]	32.4%	50.2%	25.4%	65.9%	17.2%	99%	27.1%	54.2%	32.2%	32.4%	7.48%	57.9%	6.44%	19.9%	51.3%	33.6%	13%	38.4%	28.7%
COC(=O)COc1cc(C=NNC(=O)Cn2c(-c3ccc(OC)cc3)nc3cc(Cl)c(Cl)cc32)ccc1OC [Compound 10o, Methyl-2-(5-((2-(2-(5,6-dichloro-2-(4-methoxyphenyl)-1H-benzo[d]imidazol-1-yl)acetyl)hydrazono)methyl)-2-methoxyphenoxy)acetate]	71.3%	< 5%	< 5%	33.4%	90.1%	118%	69.8%	51.2%	129%	80%	< 5%	6.53%	24.1%	97.2%	106%	24.3%	90.3%	11.1%	< 5%
COC(=O)COc1ccc(C=NNC(=O)Cn2c(-c3ccc(OC)cc3)nc3cc(Cl)c(Cl)cc32)cc1OC [Compound 10p, Methyl-2-(4-((2-(2-(5,6-dichloro-2-(4-methoxyphenyl)-1H-benzo[d]imidazol-1-yl)acetyl)hydrazono)methyl)-2-methoxyphenoxy)acetate]	95.2%	15.1%	< 5%	25.8%	64.6%	159%	143%	79.8%	186%	101%	6.03%	6.06%	< 5%	99.5%	81.1%	36.5%	116%	5.42%	< 5%
